Consider one compound from paper PMC8143347, “Metabolism and Interspecies Variation of IMMH-010, a Programmed Cell Death Ligand 1 Inhibitor Prodrug” (Pharmaceutics, 2021).

The subject of data set [1] is B16F10 melanoma. The data set is described as follows: Antitumor activity in B16F10 melanoma xenograft model. Format: in vivo, mouse. The following applies: B16F10, CTX 80 mg/kg weekly, day 19. As for the experimental part: (§1) The antitumor activity of IMMH-010 was evaluated by B16F10 melanoma and MC38 colon carcinoma xenograft models. The B16F10 and MC38 cells were resuspended in saline (1.5 × 10^6 cells/0.2 mL saline) and injected subcutaneously into the right flanks of each mouse on day 0. The treated mice received once-daily oral administration of IMMH-010 maleate (1.25, 2.5, 5, and 10 mg/kg, n = 10) by oral gavage (PO) for 19 consecutive days, whereas the control mice received vehicle (0.5% carboxymethyl cellulose, n = 10). The mice in the positive control group received the anti-mouse PD-L1 antibody (696618M2, Bio X Cell, West Lebanon, NH, USA) at 10 mg/kg intraperitoneally every 3 days (n = 10). The first-line antineoplastic drug cyclophosphamide (CTX) was administered at doses of 80 and 40 mg/kg weekly in the B16F10 and MC38 models (n = 10), respectively. After the last treatment, on day 19, the mice were sacrificed, and the tumor and spleen were stripped and weighed. The tumor growth inhibition (TGI) was calculated as TGI = (1 − treatment group tumor weight/vehicle group tumor weight) × 100.

For data set [2], the system named is MC38 colon carcinoma. Description: Antitumor activity in MC38 colon carcinoma xenograft model. Format: in vivo, mouse. The following applies: MC38, CTX 40 mg/kg weekly, day 19. As for the experimental part:
as §1

The nature of data set [3]: Body weight in B16F10 model. The following applies: B16F10, CTX 80 mg/kg weekly. As for the experimental part:
as §1

Data set [4] can be described thus: Body weight in MC38 model. Particulars: MC38, CTX 40 mg/kg weekly. As to the method: as §1

`O=P1(N(CCCl)CCCl)NCCCO1` (centres unmarked) [CTX, cyclophosphamide, reference compound]: the “Tumor Weight (g) X ± SD” value in data set [1] stood at 0.23 ± 0.18 g; in data set [2] it was 0.17 ± 0.10 g. Besides, the “Tumor Weight TGI (%)” value in data set [1] and in data set [2] was 90% in each case. The entries for the “Body Weight (g) X ± SD Finish” value in data set [3] (finish day 19) and in data set [4] (finish day 19) were 19.2 ± 0.8 g and 24.5 ± 0.9 g, respectively. Besides, the “Body Weight (g) X ± SD Start” value in data set [3] (start) was found to be 16.94 ± 0.43 g; in data set [4] (start), 22.0 ± 0.8 g.
